Results as given in ChEMBL document CHEMBL5126523, “Recent advances in DDR (DNA damage response) inhibitors for cancer therapy” (Eur J Med Chem, 2022).

Legend:
[1] = species on record: Homo sapiens; assay: Selectivity index, ratio of IC50 for ATM (unknown origin) to IC50 for PI3K-alpha (unknown origin)
[2] = target: Serine/threonine-protein kinase mTOR (Homo sapiens, UniProt P42345); assay: Inhibition of mTOR (unknown origin)
[3] = species on record: Homo sapiens; assay: Selectivity index, ratio of IC50 for ATM (unknown origin) to IC50 for mTOR (unknown origin)
[4] = species on record: Homo sapiens; assay: Selectivity index, ratio of IC50 for ATM (unknown origin) to IC50 for ATR (unknown origin)
[5] = target: T1, Phosphatidylinositol 4,5-bisphosphate 3-kinase catalytic subunit alpha isoform (Homo sapiens, UniProt P42336); assay: Inhibition of PI3K-alpha (unknown origin)
T1 sequence (P42336 whole entry, canonical isoform): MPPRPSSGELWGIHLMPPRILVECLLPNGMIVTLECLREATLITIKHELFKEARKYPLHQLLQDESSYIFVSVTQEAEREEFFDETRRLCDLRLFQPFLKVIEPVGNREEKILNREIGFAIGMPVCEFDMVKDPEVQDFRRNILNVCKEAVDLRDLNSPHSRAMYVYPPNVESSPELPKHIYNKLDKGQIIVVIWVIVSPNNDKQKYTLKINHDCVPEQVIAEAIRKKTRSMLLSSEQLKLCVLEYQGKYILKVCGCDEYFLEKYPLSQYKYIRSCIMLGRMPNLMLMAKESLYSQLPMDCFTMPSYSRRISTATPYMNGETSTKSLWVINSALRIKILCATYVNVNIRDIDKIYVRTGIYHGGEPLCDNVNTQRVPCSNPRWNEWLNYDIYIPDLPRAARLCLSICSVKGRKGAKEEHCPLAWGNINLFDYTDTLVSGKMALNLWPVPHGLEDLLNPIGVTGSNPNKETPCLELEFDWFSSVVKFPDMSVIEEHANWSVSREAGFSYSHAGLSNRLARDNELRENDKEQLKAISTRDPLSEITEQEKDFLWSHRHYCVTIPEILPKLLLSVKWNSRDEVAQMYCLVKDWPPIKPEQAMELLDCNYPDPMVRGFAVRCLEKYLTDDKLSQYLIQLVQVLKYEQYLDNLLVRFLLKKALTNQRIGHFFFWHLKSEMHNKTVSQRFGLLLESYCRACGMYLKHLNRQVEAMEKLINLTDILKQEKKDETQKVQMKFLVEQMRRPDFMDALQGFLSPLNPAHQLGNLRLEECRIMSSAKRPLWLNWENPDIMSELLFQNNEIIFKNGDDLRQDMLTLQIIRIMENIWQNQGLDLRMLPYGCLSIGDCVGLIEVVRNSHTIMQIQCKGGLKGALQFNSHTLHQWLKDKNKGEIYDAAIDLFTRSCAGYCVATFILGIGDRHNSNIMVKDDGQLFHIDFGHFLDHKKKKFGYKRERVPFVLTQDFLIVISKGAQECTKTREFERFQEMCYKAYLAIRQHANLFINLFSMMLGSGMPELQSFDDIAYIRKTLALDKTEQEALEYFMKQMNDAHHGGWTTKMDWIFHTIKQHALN

[6] = target: Serine/threonine-protein kinase ATR (Homo sapiens, UniProt Q13535); assay: Inhibition of ATR (unknown origin)
[7] = target: T2, Serine-protein kinase ATM (Homo sapiens, UniProt Q13315); assay: Inhibition of ATM (unknown origin)
[8] = Oral bioavailability in BALB/c mouse at 2 mg/kg by LC-MS/MS analysis; format: ADME, organism-based; details: in vivo
[9] = system: HCT-116; assay: Inhibition of cell proliferation in human HCT-116 cells incubated for 72 hrs by SRB assay; format: functional, cell-based; details: HCT-116, 72 h
[10] = system: HCC1937; assay: Inhibition of cell proliferation in human HCC1937 cells incubated for 72 hrs by SRB assay; format: functional, cell-based; details: HCC1937, 72 h
[11] = system: MDA-MB-231; assay: Inhibition of cell proliferation in human MDA-MB-231 cells incubated for 72 hrs by SRB assay; format: functional, cell-based; details: MDA-MB-231, 72 h
[12] = system: NCI-H460; assay: Inhibition of cell proliferation in human NCI-H460 cells incubated for 4 days by MTT assay; format: functional, cell-based; details: NCI-H460, 96 h
[13] = target: T3, ATR/ATRIP (Homo sapiens, UniProt Q13535); assay: Inhibition of full-length human recombinant FLAG-tagged ATR/c-Myc-tagged ATRIP using p53 as substrate incubated for 30 mins in presence of ATP by fluorescence based assay; format: protein-complex assay
T3 sequence (Q13535 whole entry): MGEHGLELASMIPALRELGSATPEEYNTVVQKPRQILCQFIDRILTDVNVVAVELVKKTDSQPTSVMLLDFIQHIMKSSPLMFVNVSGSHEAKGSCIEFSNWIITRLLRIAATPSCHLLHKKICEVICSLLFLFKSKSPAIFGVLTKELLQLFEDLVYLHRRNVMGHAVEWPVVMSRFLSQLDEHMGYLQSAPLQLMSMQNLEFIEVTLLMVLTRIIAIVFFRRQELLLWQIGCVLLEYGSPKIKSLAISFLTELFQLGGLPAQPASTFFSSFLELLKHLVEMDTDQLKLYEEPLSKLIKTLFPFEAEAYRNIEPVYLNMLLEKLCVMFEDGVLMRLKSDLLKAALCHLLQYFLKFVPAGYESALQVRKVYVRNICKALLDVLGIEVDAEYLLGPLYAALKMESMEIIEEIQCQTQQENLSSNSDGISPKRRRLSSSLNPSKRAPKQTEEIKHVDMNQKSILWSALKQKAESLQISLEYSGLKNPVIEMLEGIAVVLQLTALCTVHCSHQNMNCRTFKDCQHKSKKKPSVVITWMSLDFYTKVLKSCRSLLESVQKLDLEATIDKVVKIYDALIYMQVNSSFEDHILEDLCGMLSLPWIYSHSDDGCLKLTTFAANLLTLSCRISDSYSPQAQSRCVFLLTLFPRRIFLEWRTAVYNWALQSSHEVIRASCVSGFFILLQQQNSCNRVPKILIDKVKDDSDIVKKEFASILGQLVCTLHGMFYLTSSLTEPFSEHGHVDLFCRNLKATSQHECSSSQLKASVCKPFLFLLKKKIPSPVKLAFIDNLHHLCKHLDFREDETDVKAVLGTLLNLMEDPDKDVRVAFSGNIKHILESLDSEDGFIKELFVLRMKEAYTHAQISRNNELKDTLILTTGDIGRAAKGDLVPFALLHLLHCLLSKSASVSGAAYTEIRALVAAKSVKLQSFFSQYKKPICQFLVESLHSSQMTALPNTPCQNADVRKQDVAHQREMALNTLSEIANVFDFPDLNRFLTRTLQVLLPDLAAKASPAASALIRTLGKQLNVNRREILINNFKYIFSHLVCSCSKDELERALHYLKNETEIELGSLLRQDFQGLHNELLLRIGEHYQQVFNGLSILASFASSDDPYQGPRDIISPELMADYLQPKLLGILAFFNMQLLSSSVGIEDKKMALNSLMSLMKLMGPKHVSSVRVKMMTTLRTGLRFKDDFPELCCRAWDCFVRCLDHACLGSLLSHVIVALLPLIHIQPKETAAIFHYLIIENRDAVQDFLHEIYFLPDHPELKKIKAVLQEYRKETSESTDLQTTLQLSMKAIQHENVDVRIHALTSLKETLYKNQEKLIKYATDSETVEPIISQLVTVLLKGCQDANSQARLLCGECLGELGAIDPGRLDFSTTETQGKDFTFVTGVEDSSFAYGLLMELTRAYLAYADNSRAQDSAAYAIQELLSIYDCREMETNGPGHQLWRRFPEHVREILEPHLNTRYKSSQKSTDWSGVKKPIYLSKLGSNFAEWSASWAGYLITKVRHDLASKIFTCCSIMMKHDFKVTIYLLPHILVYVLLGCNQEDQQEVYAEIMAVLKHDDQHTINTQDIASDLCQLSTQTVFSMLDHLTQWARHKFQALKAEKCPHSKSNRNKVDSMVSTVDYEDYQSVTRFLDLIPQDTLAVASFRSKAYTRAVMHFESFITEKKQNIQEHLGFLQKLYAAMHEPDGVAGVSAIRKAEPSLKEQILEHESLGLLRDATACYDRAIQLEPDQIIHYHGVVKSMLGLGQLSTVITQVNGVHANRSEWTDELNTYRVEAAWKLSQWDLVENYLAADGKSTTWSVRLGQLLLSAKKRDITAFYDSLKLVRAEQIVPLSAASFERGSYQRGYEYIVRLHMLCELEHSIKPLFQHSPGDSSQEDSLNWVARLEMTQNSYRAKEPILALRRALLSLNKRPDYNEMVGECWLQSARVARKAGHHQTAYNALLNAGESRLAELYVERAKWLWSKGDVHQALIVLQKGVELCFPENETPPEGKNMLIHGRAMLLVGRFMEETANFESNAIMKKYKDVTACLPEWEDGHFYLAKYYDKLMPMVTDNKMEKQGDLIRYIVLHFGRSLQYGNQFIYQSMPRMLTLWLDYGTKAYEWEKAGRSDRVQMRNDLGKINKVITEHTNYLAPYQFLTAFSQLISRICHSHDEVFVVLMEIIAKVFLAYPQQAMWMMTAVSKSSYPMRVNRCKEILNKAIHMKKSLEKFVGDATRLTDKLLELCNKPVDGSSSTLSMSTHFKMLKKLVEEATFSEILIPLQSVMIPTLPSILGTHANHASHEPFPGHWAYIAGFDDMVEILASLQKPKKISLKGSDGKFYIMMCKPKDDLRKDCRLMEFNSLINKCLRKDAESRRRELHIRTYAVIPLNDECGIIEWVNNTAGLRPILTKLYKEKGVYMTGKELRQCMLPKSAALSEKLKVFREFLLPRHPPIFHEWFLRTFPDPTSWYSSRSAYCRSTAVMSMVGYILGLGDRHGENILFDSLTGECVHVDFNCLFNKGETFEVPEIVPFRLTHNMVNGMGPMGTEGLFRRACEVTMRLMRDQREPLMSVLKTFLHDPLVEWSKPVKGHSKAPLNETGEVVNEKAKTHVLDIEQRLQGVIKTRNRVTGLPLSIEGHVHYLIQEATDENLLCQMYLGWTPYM
T3 sequence (Q8WXE1 whole entry, further chain): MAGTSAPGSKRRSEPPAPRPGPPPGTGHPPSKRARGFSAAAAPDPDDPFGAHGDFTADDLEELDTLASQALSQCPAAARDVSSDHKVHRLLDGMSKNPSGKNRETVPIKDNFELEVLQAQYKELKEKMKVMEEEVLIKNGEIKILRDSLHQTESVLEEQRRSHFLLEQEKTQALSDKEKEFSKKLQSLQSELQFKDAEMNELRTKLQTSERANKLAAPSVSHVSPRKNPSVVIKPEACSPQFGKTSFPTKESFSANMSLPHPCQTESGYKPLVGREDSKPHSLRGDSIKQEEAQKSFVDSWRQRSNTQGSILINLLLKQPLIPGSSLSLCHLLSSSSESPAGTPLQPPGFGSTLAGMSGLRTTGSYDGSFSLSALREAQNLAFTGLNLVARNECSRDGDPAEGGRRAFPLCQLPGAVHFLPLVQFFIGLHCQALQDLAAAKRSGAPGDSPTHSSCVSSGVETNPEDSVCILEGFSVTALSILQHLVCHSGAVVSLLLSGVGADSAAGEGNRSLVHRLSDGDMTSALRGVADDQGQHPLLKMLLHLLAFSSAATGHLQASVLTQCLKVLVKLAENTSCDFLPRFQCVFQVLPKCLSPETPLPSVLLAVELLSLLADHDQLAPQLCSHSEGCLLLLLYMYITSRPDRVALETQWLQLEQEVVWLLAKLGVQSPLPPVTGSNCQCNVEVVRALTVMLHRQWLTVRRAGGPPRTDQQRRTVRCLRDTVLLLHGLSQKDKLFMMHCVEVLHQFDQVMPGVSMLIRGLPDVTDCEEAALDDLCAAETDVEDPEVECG

[14] = system: DU-145; assay: Inhibition of cell proliferation in human DU-145 cells incubated for 4 days by MTT assay; format: functional, cell-based; details: DU-145, 96 h
[15] = target: T4, Wee1-like protein kinase (Homo sapiens, UniProt P30291); assay: Displacement of tracer 178 from WEE1 (unknown origin) incubated for 1 hr by Lantha Screen assay
T4 sequence (P30291 whole entry): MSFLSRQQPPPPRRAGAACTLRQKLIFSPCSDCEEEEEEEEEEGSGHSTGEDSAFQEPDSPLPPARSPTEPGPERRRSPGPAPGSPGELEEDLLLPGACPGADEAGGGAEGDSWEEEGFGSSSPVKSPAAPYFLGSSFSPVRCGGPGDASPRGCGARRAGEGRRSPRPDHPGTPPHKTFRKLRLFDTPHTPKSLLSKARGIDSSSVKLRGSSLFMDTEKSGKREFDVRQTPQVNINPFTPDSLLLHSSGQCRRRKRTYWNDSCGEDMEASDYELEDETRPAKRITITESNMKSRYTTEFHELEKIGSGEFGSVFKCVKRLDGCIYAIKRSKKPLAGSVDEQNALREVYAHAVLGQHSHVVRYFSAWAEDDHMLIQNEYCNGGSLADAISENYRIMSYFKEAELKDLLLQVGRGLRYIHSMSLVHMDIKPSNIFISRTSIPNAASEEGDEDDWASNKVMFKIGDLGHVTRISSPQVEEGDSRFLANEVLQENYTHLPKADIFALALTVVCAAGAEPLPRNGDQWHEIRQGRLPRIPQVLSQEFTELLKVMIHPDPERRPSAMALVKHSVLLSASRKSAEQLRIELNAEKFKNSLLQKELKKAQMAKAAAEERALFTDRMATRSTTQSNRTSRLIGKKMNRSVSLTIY

[16] = target: T3, ATR/ATRIP; assay: Inhibition of human FLAG-tagged ATR/c-Myc-tagged ATRIP expressed in mammalian expression system using p53 as substrate incubated for 2 hrs by fluorescence based assay
[17] = system: LoVo; assay: Inhibition of cell growth in human LoVo cells assessed as measuring ATP content incubated for 3 days by Cell Titer Glo assay; format: functional, cell-based; details: 72 h
[18] = target: T2, Serine-protein kinase ATM; assay: Inhibition of ATM in human MCF7 cells […] incubated for 1 hr by Cell Western assay; format: cell-based
[19] = target: T5, DNA-dependent protein kinase catalytic subunit (Homo sapiens, UniProt P78527); assay: Inhibition of full-length human DNA-PK expressed in baculovirus expression system using p53 as substrate incubated for 1 hr in presence of ATP by ELISA
[20] = target: T3, ATR/ATRIP; assay: Inhibition of full-length human recombinant FLAG-tagged ATR/c-Myc-tagged ATRIP using p53 as substrate incubated for 30 mins in presence of ATP by HTRF assay; format: protein-complex assay
[21] = target: Poly [ADP-ribose] polymerase tankyrase-1 (Homo sapiens, UniProt O95271); assay: Inhibition of tankyrase 1 (unknown origin) incubated for 1 hr by chemiluminescence assay
[22] = target: Poly [ADP-ribose] polymerase 1 (Homo sapiens, UniProt P09874); assay: Inhibition of PARP1 (unknown origin) incubated for 1 hr by chemiluminescence assay
[23] = target: Poly [ADP-ribose] polymerase tankyrase-2 (Homo sapiens, UniProt Q9H2K2); assay: Inhibition of tankyrase 2 (unknown origin) incubated for 1 hr by chemiluminescence based assay
[24] = target: T1, Phosphatidylinositol 4,5-bisphosphate 3-kinase catalytic subunit alpha isoform; assay: Inhibition of PI3K-alpha (unknown origin) incubated for 40 mins in presence of ATP by ELISA
[25] = target: T5, DNA-dependent protein kinase catalytic subunit; assay: Inhibition of DNA-PK (unknown origin) incubated for 3 hrs by ADP-Glo kinase assay
[26] = Cmax in ICR mouse at 3 mg/kg, iv measured for 2 to 1440 mins; format: ADME, organism-based; set-up: time upper 1440 min, dose 3 mg/kg, time lower 2 min, route iv; details: in vivo
[27] = target: T4, Wee1-like protein kinase; assay: Inhibition of N-terminal GST-tagged wild-type WEE1 (215 to 646 residues) (unknown origin) expressed in Sf21 insect cells incubated for 60 mins in presence of ATP by ELISA
[28] = AUC (0 to last) in ICR mouse at 3 mg/kg, iv measured for 2 to 1440 mins; format: ADME, organism-based; set-up: time 2-1440 min, dose 3 mg/kg, route iv; details: in vivo
[29] = AUC (0 to last) in ICR mouse at 10 mg/kg, po measured for 5 to 1440 mins; format: ADME, organism-based; set-up: time 5-1440 min, dose 10 mg/kg, route po; details: in vivo
[30] = Half life in ICR mouse at 10 mg/kg, po measured for 5 to 1440 mins; format: ADME, organism-based; details: in vivo, time 5-1440 min
[31] = Cmax in ICR mouse at 10 mg/kg, po measured for 5 to 1440 mins; format: ADME, organism-based; set-up: time upper 1440 min, dose 10 mg/kg, time lower 5 min, route po; details: in vivo
[32] = Tmax in ICR mouse at 3 mg/kg, iv measured for 2 to 1440 mins; format: ADME, organism-based; details: in vivo, time 2-1440 min
[33] = Tmax in ICR mouse at 10 mg/kg, po measured for 5 to 1440 mins; format: ADME, organism-based; details: in vivo, time 5-1440 min
[34] = Oral bioavailability in ICR mouse at 10 mg/kg measured for 5 to 1440 mins; format: ADME, organism-based; details: in vivo, time 5-1440 min
[35] = Half life in ICR mouse at 3 mg/kg, iv measured for 2 to 1440 mins; format: ADME, organism-based; details: in vivo, time 2-1440 min
[36] = system: HCT-116; assay: Inhibition of cell proliferation in human HCT-116 incubated for 48 hrs by Cell Titer Glo assay; format: functional, cell-based; details: HCT-116, 48 h
[37] = system: NCI-H23; assay: Inhibition of cell proliferation in human NCI-H23 incubated for 48 hrs by Cell Titer Glo assay; format: functional, cell-based; details: NCI-H23, 48 h
[38] = target: T3, ATR/ATRIP; assay: Inhibition of full-length recombinant human ATR/ATRIP using p53 as substrate incubated for 30 mins in presence of ATP by HTRF assay; format: protein-complex assay
[39] = system: NCI-H1299; assay: Inhibition of cell proliferation in human NCI-H1299 cells incubated for 3 days by MTT assay; format: functional, cell-based; details: NCI-H1299, 72 h

For `CC(C)n1c(=O)n(C)c2cnc3ccc(-c4ccc(OCCCN(C)C)nc4)cc3c21`, the Ratio IC50 [1] was > 1000, the IC50 [2] was > 10000 nM and the Ratio IC50 [3] was > 1000. The Ratio IC50 [4] was > 1000, the IC50 [5] was > 10000 nM and the IC50 [6] was > 30000 nM. The IC50 [7] was 3.98 nM.
`Cc1cc2ncnn2cc1Nc1ncc2c(n1)n(N1CCOCC1)c(=O)n2C` showed a bioavailability [8] of 96.4%.
For `Nc1ncc(-c2nc3c(c(N4CCOCC4)n2)CCN(C(=O)c2cc(Cc4n[nH]c(=O)c5ccccc45)ccc2F)C3)cn1`, the IC50 [9] was 211 nM, the IC50 [10] was 81 nM and the IC50 [11] was 443 nM.
With `Cc1ccc(-c2cc(N3CCOC[C@H]3C)nn3c(-c4ccn[nH]4)cnc23)cn1` the IC50 [12] was 322 nM, the IC50 [13] was 379 nM and the IC50 [14] was 914 nM.
With `C=CCn1c(=O)c2cnc(Nc3ccc4c(c3)OC[C@@H]3C[C@@H](N(C)C)CN43)nc2n1-c1ccc(C(C)(C)O)cn1` the IC50 [15] was 4.78 nM.
Compound `C[C@@H]1COC[C@H]2COc3c(nc(-c4ccnc5[nH]ccc45)nc3C3(S(C)(=N)=O)CC3)N21` (stereo partly specified) has an IC50 [16] of 4 nM and an IC50 [17] of 699 nM.
`CN(C)CCCOc1ncc(-c2ccc3ncc4c(c3c2)C2(CCC2)C(=O)N4C)cc1NS(=O)(=O)C(F)(F)F` showed an IC50 [18] of 1 nM and an IC50 [19] of 1 nM.
For `C[C@@H]1COCCN1c1nc(-c2c(N)ncc3[nH]ccc23)nc2c1OC1CC2(S(C)(=O)=O)C1`, the IC50 [20] was 62.1 nM and the IC50 [17] was 1.36 nM.
Work on `COc1ccccc1NC(=O)c1ccc(NC(=O)N2CCN(C(=O)c3cc(Cc4n[nH]c(=O)c5ccccc45)ccc3F)CC2)cc1` yielded an IC50 [21] of 34.8 nM, an IC50 [22] of 0.59 nM and an IC50 [23] of 6.45 nM.
In the case of `Nc1cc(C(F)(F)F)c(-c2nc3c(c(N4CCOCC4)n2)CCN(C(=O)c2cc(Cc4n[nH]c(=O)c5ccccc45)ccc2F)C3)cn1`, the IC50 [9] is reported as 775 nM, the IC50 [10] is reported as 504 nM and the IC50 [11] is reported as 155 nM.
With `Nc1cc(C(F)(F)F)c(-c2nc(N3CCOCC3)nc(N3CCN(C(=O)c4cc(Cc5n[nH]c(=O)c6ccccc56)ccc4F)CC3)n2)cn1` the IC50 [9] was 342 nM, the IC50 [10] was 264 nM and the IC50 [11] was 3290 nM. It also gave an IC50 [24] of 81.7 nM.
With `CC(C)n1c(=O)n(C)c2cnc3ccc(-c4ccc(OCCCN5CCCC5)nc4)cc3c21` the Ratio IC50 [1] was > 1000, the IC50 [2] was > 10000 nM and the Ratio IC50 [3] was > 1000. The Ratio IC50 [4] was > 1000, the IC50 [5] was > 10000 nM and the IC50 [6] was > 30000 nM. For the same compound, the IC50 [7] was 1.59 nM.
With `NC(=O)c1cccc2cc(C(=O)N3CCN(c4nc(-c5cnc(N)nc5)nc(N5CCOCC5)n4)CC3)oc12` the IC50 [9] was 94 nM, the IC50 [22] was 6.3 nM and the IC50 [10] was 61 nM. The IC50 [11] was 4120 nM and the IC50 [24] was 5.8 nM.
With `COc1ccc(Nc2cc(-c3ncnc4cc(N5CCOCC5)ccc34)c(F)cc2Cl)nn1` the IC50 [25] was 165 nM.
Compound `C[C@@H]1COCCN1c1nc(C(C)(C)C#N)c2[nH]nc(-c3ccn[nH]3)c2n1` has an IC50 [16] of 3 nM and an IC50 [17] of 55 nM.
In the case of `C=CCn1c(=O)c2cnc(Nc3ccc(N4C[C@H]5CN(C)C[C@H]5C4)cc3)nc2n1-c1ccc(C(C)(C)O)cn1`, the Cmax [26] is reported as 241 nM, the IC50 [27] is reported as 1.83 nM and the AUC(0-t) [28] is reported as 191 ng·h/mL. The AUC(0-t) [29] was 409 ng·h/mL, the half-life [30] was 1.32 h and the Cmax [31] was 121 nM. The Tmax [32] was 1.8 min, the Tmax [33] was 1.33 h and the bioavailability [34] was 64.3%. It also gave a half-life [35] of 0.92 h.
For `C[C@@H]1COCCN1c1cc(-c2ccnn2C)nc(-n2c(NCCO)nc3ccc(F)cc32)n1`, the IC50 [36] was < 10000 nM, the IC50 [37] was < 10000 nM and the IC50 [38] was < 500 nM.
With `C=CCn1c(=O)c2cnc(Nc3ccc4c(c3)OC[C@@H]3CN(C)CCN43)nc2n1-c1ccc(C(C)(C)O)cn1` the IC50 [15] was 2.49 nM.
Compound `C[C@@H]1CN(c2ccc(Nc3cc4c(cn3)C(=O)N(c3c(Cl)cccc3Cl)C3=NCCN34)cc2)C[C@H](C)N1C` has an IC50 [39] of 105 nM.
